Test results from article PMC11603075 (Communications Biology, 2024).

Legend:
KDM4E = biological target: T1, KDM4E (Homo sapiens, UniProt B2RXH2); experiment: MALDI–TOF MS time course / specific activity, KDM4E; type: biochemical
T1 construct: KDM4E1–337; made in house; host or cells: E. coli
T1 sequence (B2RXH2 1-337): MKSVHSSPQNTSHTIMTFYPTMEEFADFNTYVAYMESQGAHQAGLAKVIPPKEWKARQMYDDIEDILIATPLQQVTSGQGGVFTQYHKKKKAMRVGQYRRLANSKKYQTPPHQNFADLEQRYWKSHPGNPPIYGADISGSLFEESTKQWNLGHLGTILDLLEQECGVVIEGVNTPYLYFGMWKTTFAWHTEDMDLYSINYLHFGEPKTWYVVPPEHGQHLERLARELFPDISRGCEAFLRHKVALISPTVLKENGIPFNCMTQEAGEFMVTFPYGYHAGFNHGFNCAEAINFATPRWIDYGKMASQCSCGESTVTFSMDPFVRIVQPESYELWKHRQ
Method: MS-based screening assays with peptides and calf thymus histones were as reported; see Supplementary Table 6 for conditions. Time course assays were based on reported procedures. In brief, equal volumes of the enzyme and substrate solutions were combined to initiate the reaction; 10 µL of 2% (v/v) formic acid (HCOOH) in ddH2O or 100% methanol was added to 10 µL of the reaction mixture to quench reactions at different time points. Unless otherwise stated, time course assays were carried out in triplicate. In some cases, LC–MS was used instead of MALDI-TOF MS to avoid a MALDI matrix induced artefact with the hydroxylated product (Supplementary Fig. 16).
Data collected from time course assay(s) were used to plot the % conversion vs time (min) using GraphPad Prism5 version 5.04; the resultant slopes were used to fit a line with linear regression to the first-order region of the reaction. The resultant gradient was then converted from % product formation min^−1 to amount of peptide converted (demethylation and / or hydroxylation) in µM.
Supplementary Figure 4 Activity of KDM5C (black circles) with H2a(1–20)R3me2a is greater than that of KDM4E (white circles). (a) A MALDI–TOF MS time course graph of product formation (%) of KDM4E ( −14 Da/+16 Da) and KDM5C (−14 Da) reaction with H2a(1–20)R3me2a versus time (minutes). ~60% substrate depletion was reached after 105 minutes with KDM4E; ~95% of H2a(1–20)R3me2a was demethylated after 1 05 minut e s wit h K DM5 C. (b ) Comparison of specific activities of KDM4E with H2a(1–20)R3me2a (0.15 […]
bars; +/- SD; n = 3 (independent assays). See Supplementary Table 6 for assay condit ions.
(also on this page, place not known: 105 minutes KDM5C. (b) H2a(1 –20)R3me2a with conditions. specific activity (pmol·min-1·μM-1))
(1 picture or pasted object on this page, not shown here)
[ E nz ym e] [Peptide] [2OG] [Ascorbate] [(NH4)2F e(S O4)2] [TCEP] Buffer pH7.5 Enzyme Cognate substrate (mM) (mM) (mM) (mM) (mM) (mM) [HE PE S]
Supplementary Table 6 Summary of MS assay conditions for substrate screening. These conditions enabled efficient turnover of established substrates. Reactions were carried out at 37 °C unless otherwise st ated. […]

KDM4A1–1064 = experiment: MALDI–TOF MS product formation, full length KDM4A1–1064; type: biochemical, human; conditions: 60 min; for % product formation: 1 µM enzyme, 10 µM peptide
Method: Supplementary Figure 5 H2aR3me2a is a substrate of full length KDM4A. (a) Representative MALDI–T OF
MS (60 -minute incubation) (from top to bottom) K DM4A 1–1064, KDM4A1–35 9 and KDM4E1–337 w it h H 2 a( 1–
Representative data are shown from n = 3 (independent assays). Charge state of labelled ions: [MH]+. (b)
Bar graph comparing % product format ion of H2a(1 –20)R3me2a by KDM4A1–10 64, KDM4A1–359 and KDM4E1–
33 7, analysed by MALDI–TOF MS. n = 2/3 (independent assays). Conditions: 1 µM KDM4A1–359 and KDM4E1–
(NH4)2Fe(SO4)2, and 50 mM HEPES (pH 7.5), 1 mM TCEP, 0.02% (v/v) Triton-X . […]

## Ac - SGR [ me 2a ] GKQ GGKAR AKAKT R SSR [H2a(1–20)R3me2a, H2a(1–20)R3me2a without a biotin tag]
KDM4E; 0 min, replicate 1
  product formation (−14 Da/+16 Da): 0%
KDM4E; 0 min, replicate 2
  product formation (−14 Da/+16 Da): 0%
KDM4E; 0 min, replicate 3
  product formation (−14 Da/+16 Da): 0%
KDM4E; 5 min, replicate 1
  product formation (−14 Da/+16 Da): 3.341%
KDM4E; 5 min, replicate 2
  product formation (−14 Da/+16 Da): 5.787%
KDM4E; 5 min, replicate 3
  product formation (−14 Da/+16 Da): -0.8025%
KDM4E; 15 min, replicate 1
  product formation (−14 Da/+16 Da): -0.9416%
KDM4E; 15 min, replicate 2
  product formation (−14 Da/+16 Da): 5.091%
KDM4E; 15 min, replicate 3
  product formation (−14 Da/+16 Da): -0.7355%
KDM4E; 30 min, replicate 1
  product formation (−14 Da/+16 Da): 22.6189%
KDM4E; 30 min, replicate 2
  product formation (−14 Da/+16 Da): 32.3989%
KDM4E; 30 min, replicate 3
  product formation (−14 Da/+16 Da): 20.757%
KDM4E; 45 min, replicate 1
  product formation (−14 Da/+16 Da): 29.5376%
KDM4E; 45 min, replicate 2
  product formation (−14 Da/+16 Da): 33.3686%
KDM4E; 45 min, replicate 3
  product formation (−14 Da/+16 Da): 28.8806%
KDM4E; 60 min, replicate 1
  product formation (−14 Da/+16 Da): 41.1416%
KDM4E; 60 min, replicate 2
  product formation (−14 Da/+16 Da): 35.7562%
KDM4E; 60 min, replicate 3
  product formation (−14 Da/+16 Da): 37.6375%
KDM4E; 75 min, replicate 1
  product formation (−14 Da/+16 Da): 48.3844%
KDM4E; 75 min, replicate 2
  product formation (−14 Da/+16 Da): 47.469%
KDM4E; 75 min, replicate 3
  product formation (−14 Da/+16 Da): 46.9153%
KDM4E; 90 min, replicate 1
  product formation (−14 Da/+16 Da): 60.0026%
KDM4E; 90 min, replicate 2
  product formation (−14 Da/+16 Da): 49.7939%
KDM4E; 90 min, replicate 3
  product formation (−14 Da/+16 Da): 54.7629%
KDM4E; 105 min, replicate 1
  product formation (−14 Da/+16 Da): 62.5982%
KDM4E; 105 min, replicate 2
  product formation (−14 Da/+16 Da): 62.265%
KDM4E; 105 min, replicate 3
  product formation (−14 Da/+16 Da): 60.6438%
KDM4E; KDM4E, 105 minutes
  substrate depletion: ~ 60%
KDM4E; KDM4E, mean of n = 3, SD 0.010
  specific activity: 0.15 pmol min^−1 µM^−1
KDM4E; KDM4E, repeat 1
  specific activity: 0.1634 pmol·min-1·μM-1
KDM4E; KDM4E, repeat 2
  specific activity: 0.141 pmol·min-1·μM-1
KDM4E; KDM4E, repeat 3
  specific activity: 0.1586 pmol·min-1·μM-1
KDM4A1–1064; replicate 1
  % product formation: 19.2569%
KDM4A1–1064; replicate 2
  % product formation: 31.6947%
KDM4A1–1064; replicate 3
  % product formation: 39.2291%
KDM4A1–1064; MALDI–TOF MS, n = 3
  –14 Da mass shift (demethylation): –14 Da mass shifts
